Laboratory results published in ChEMBL document CHEMBL3871282, “Neo-tanshinlactone D-ring modified novel analogues induce apoptosis in human breast cancer cell via DNA damage” (Bioorg Med Chem, 2017).

Experiments:
[1] = Cytotoxicity against human HCT116 cells assessed as cell growth inhibition after 24 hrs by MTT assay; format: functional, cell-based; settings: HCT-116, 24 h
[2] = Cytotoxicity against human HeLa cells assessed as cell growth inhibition after 24 hrs by MTT assay; format: functional, cell-based
[3] = Cytotoxicity against human MDA-MB-231 ER negative, PR negative,HER2 negative cells assessed as cell growth inhibition after 24 hrs by MTT assay; format: functional, cell-based; settings: MDA-MB-231, 24 h
[4] = Cytotoxicity against human HepG2 cells assessed as cell growth inhibition after 24 hrs by MTT assay; format: functional, cell-based; settings: HepG2, 24 h
[5] = Cytotoxicity against human SKBR3 ER negative, PR negative,HER2 positive cells assessed as cell growth inhibition after 24 hrs by MTT assay; format: functional, cell-based; settings: SK-BR-3, 24 h
[6] = Cytotoxicity against human MCF7 ER positive, PR positive/negative,HER2 negative cells assessed as cell growth inhibition after 24 hrs by MTT assay; format: functional, cell-based; settings: MCF7, 24 h
[7] = Cytotoxicity against human HaCaT cells assessed as cell growth inhibition after 24 hrs by MTT assay; format: toxicity, cell-based
[8] = Cytotoxicity against human WI38 cells assessed as cell growth inhibition after 24 hrs by MTT assay; format: toxicity, cell-based, WI-38
[9] = Cytotoxicity against human breast cancer cells assessed as cell growth inhibition after 3 days by SRB assay; format: functional, Cancer cell lines

| SMILES | IC50 [1] [µM] | IC50 [2] [µM] | IC50 [3] [µM] | IC50 [4] [µM] | IC50 [5] [µM] | IC50 [6] [µM] | IC50 at 24 h [7] [µM] | IC50 at 24 h [8] [µM] | GI [9] [µM] |
| --- | --- | --- | --- | --- | --- | --- | --- | --- | --- |
| O=c1cc(OS(=O)(=O)c2ccc(C(F)(F)F)cc2)c2ccc3ccccc3c2[nH]1 | 150 | > 200 | 139 | > 200 | 131 | 120 |  |  |  |
| COc1ccc(COc2cc(=O)[nH]c3c2ccc2ccccc23)cc1 | 0.0752 | 42.7 | 0.178 | 42.2 | 0.166 | 0.0487 | > 100 | > 100 |  |
| O=C(Oc1cc(=O)[nH]c2c1ccc1ccccc12)c1ccc([N+](=O)[O-])cc1 | 84.1 | 85.3 | 69.4 | 103 | 56.4 | 45.9 |  |  |  |
| O=C(Oc1cc(=O)[nH]c2c1ccc1ccccc12)c1ccc(F)cc1F | 92.8 | 68.9 | 70.2 | 67.5 | 67.1 | 63.4 |  |  |  |
| O=C(/C=C/c1ccc([N+](=O)[O-])cc1)Oc1cc(=O)[nH]c2c1ccc1ccccc12 | 76.1 | 90 | 43.9 | 99.1 | 38.4 | 37.9 |  |  |  |
| CCCC(=O)Oc1cc(=O)[nH]c2c1ccc1ccccc12 | 23.3 | 62 | 38.2 | 35.2 | 31.1 | 11.3 |  |  |  |
| O=c1cc(OS(=O)(=O)c2ccc(F)cc2)c2ccc3ccccc3c2[nH]1 | 168 | > 200 | 157 | > 200 | 144 | 132 |  |  |  |
| Cc1cccc2c1ccc1c3occ(C)c3c(=O)oc21 |  |  |  |  |  |  |  |  | 9.65 |
| O=c1cc(OCc2nc3ccccc3[nH]2)c2ccc3ccccc3c2[nH]1 | 0.0672 | 34.9 | 0.117 | 44.2 | 0.103 | 0.0383 | > 100 | > 100 |  |
| CC(C)CC(=O)Oc1cc(=O)[nH]c2c1ccc1ccccc12 | 27.6 | 45.4 | 57.4 | 73.1 | 39.8 | 11.9 |  |  |  |
| O=C(Oc1cc(=O)[nH]c2c1ccc1ccccc12)c1ccccc1 | 64 | 81 | 49.3 | 83.1 | 42.6 | 30.6 |  |  |  |
| CCC(=O)Oc1cc(=O)[nH]c2c1ccc1ccccc12 | 52 | 59.2 | 34.5 | 55.1 | 30.6 | 20.9 |  |  |  |
| O=c1cc(OCc2ccc([N+](=O)[O-])cc2)c2ccc3ccccc3c2[nH]1 | 0.0881 | 39.7 | 0.181 | 41.3 | 0.153 | 0.0665 | > 100 | > 100 |  |
